Experimental data published in ChEMBL document CHEMBL1201862, “PubChem BioAssay data set” (2004).
Activity calls are given as the source filed them.

Experiments:
[1] = P. falciparum ATP4 D1247Y mutant growth inhibitors, dose response, NITD609-resistant line, SYBR Green, dry powder (AID 1159571); assay type: functional, cell-based;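 further: parasites synchronized at ring stage by sorbitol before testing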
[2] = P. falciparum 3D7-ScDHODH growth inhibitors, dose response, SYBR Green, dry powder samples (AID 1159570); assay type: functional, cell-based;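 further: parasite growth measured after 72 hours of compound exposure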
[3] = P. falciparum Dd2 growth inhibitors, dose response, SYBR Green, cherry-picked samples (AID 1159567); assay type: functional, cell-based
[4] = P. falciparum Dd2 growth inhibitors, dose response, SYBR Green, dry powder samples (AID 1159566); assay type: functional, cell-based;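 further: potency for growth inhibition with lower SYBR green DNA signal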
[5] = Luminescence Cell-Based Dose Retest to Confirm Inhibitors of Cancer Stem Cells. [Related pubchem assays (depositor defined):AID2717, AID2721]; assay type: functional; conditions: Homo sapiens
[6] = target: T1, Heat shock factor protein 1 (Mus musculus, UniProt P38532); experiment: inhibition of MG132-induced HSE-luciferase signal, confirmation, cell-based, NIH3T3, luminescence, dose retest (AID 2382); assay type: functional;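 further: NIH3T3 fibroblasts with HSF1-driven luciferase reporter stressed by proteasome inhibitor MG132; luminescence from HSF1-driven luciferase expression after 8 hours of MG132 stress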
T1 sequence (P38532 whole entry): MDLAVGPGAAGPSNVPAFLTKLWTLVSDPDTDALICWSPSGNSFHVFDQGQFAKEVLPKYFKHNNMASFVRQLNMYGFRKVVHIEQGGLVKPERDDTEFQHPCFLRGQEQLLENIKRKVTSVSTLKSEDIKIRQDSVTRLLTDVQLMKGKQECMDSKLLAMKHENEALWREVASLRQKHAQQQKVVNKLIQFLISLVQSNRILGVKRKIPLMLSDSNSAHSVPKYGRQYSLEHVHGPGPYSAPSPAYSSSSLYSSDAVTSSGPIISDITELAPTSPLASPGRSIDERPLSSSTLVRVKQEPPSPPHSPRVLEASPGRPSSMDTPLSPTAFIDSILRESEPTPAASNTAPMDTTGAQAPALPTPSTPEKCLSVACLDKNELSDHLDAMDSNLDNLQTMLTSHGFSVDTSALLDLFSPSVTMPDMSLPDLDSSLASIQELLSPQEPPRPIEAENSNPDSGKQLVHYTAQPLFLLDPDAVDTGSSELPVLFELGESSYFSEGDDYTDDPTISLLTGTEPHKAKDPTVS

[7] = target: Heat shock protein HSP 90-alpha (Homo sapiens, UniProt P07900); assay type: functional, organism-based
[8] = target: T2, Polyadenylate-binding protein 1 (Homo sapiens, UniProt P11940); experiment: PABP1 MLLE–PAM2 binding inhibitor potency, dose response, biochemical, fluorescence polarization, FITC-PAM2 peptide (AID 602259); assay type: functional; conditions: read-out: IC50_Mean
[9] = target: T3, Carboxy-terminal domain RNA polymerase II polypeptide A small phosphatase 1 (Homo sapiens, UniProt Q9GZU7); experiment: inhibitors of CTDSP1, concentration-response testing, biochemical assay, absorbance-based, actives from ultra-high-throughput screening (AID 540297); assay type: functional
T3 sequence (Q9GZU7 whole entry): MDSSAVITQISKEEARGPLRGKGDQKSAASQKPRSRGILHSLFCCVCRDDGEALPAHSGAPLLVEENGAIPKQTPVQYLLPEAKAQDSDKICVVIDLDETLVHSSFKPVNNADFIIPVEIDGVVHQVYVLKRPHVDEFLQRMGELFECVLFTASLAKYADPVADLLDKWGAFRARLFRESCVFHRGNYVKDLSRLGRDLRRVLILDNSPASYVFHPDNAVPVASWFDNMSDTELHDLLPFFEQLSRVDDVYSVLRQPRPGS

[10] = target: T2, Polyadenylate-binding protein 1; experiment: PABP1 MLLE–PAM2 interaction inhibitors, dose response, miRNA deadenylation inhibitor project, biochemical, fluorescence polarization, Cy5-PAM2 peptide, secondary (AID 602260); assay type: functional; conditions: read-out: IC50_Mean
[11] = inhibitors of HIV Env-driven cell fusion, dose response, cherry-pick (AID 652057); assay type: functional, cell-based
[12] = inhibitors of clade B AD8 Env fusion, dose response, cell-based, cherry-pick (AID 652062); assay type: functional;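 further: luciferase signal from cell-cell fusion driven by HIV-1 clade B AD8 Env; potency is for inhibitors of fusion seen as a drop in luminescence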
[13] = ZM109 Env clade C HIV-1 fusion inhibitors, dose response, HeLa effector, CEM target cells, luciferase, cherry-pick (AID 652058); assay type: functional, cell-based
Cysteine protease ATG4B = target: T4, Cysteine protease ATG4B (Homo sapiens, UniProt Q9Y4P1); assay type: functional;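 further: Fluorescence-based dose-response confirmation assay measuring inhibition of ATG4B activity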
T4 sequence (Q9Y4P1 whole entry): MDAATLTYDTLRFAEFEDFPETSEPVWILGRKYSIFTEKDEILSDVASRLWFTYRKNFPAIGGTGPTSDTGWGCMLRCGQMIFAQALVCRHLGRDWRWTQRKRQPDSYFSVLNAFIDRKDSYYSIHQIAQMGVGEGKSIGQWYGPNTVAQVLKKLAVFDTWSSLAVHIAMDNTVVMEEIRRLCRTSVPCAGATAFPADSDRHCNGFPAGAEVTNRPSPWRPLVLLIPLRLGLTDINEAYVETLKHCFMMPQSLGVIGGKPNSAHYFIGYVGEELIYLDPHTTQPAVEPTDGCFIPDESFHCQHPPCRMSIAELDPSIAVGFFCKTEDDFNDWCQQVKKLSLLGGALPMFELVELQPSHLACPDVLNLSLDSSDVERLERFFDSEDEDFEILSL

Phospholipase A2 = Phospholipase A2 (Homo sapiens, UniProt P04054); assay type: functional;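 further: confirmatory dose-response counterscreen on phospholipase A2, testing hits that came from an ultra-high-throughput screen for ATG4B inhibitors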
[14] = target: T5, Sentrin-specific protease 8 (Homo sapiens, UniProt Q96LD8); assay type: functional
T5 sequence (Q96LD8 whole entry): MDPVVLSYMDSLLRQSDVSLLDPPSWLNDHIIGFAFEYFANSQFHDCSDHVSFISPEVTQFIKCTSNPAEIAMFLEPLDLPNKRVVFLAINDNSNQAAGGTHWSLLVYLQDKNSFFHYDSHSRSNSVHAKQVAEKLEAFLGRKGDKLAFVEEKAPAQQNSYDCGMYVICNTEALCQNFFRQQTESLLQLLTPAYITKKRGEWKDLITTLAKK

[15] = target: T5, Sentrin-specific protease 8; assay type: functional; remark: listed apart in the source
SN12K1 = experiment: cells; assay type: functional; conditions: Homo sapiens
P388/ADR = experiment: cells; assay type: functional; conditions: Mus musculus
P388 = experiment: cells; assay type: functional; conditions: Mus musculus
[16] = cytotoxicity toward NIH3T3 fibroblasts, dose response, counter-screen, cell-based, ATP luminescence, mouse fibroblasts (AID 2010); assay type: functional;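 further: cells exposed to compound for about 90 hours before reading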
[17] = inhibitors of intracellular T. cruzi replication, confirmation, NIH3T3 host cells, beta-gal luminescence (AID 2044); assay type: functional, cell-based;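 further: intracellular parasites grown in NIH/3T3 mouse fibroblasts as host cells; luminescent beta-galactosidase reporter signal from transgenic T. cruzi replicating inside host cells; inhibitors lower the luminescence signal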
cells = assay type: functional
[18] = C. albicans growth with fluconazole, confirmation, fluorescence, retest (AID 2467); assay type: functional, cell-based
[19] = NIH-3T3 fibroblast cytotoxicity, dose response, cytotoxicity control, cell-based, fluorescence, Alamar Blue, secondary assay (AID 2327); assay type: functional;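 further: NIH-3T3 mouse fibroblasts cultured with fluconazole at 8 µg/mL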
[20] = LGR2 antagonists, dose response, cell-based, HEK293, CRE-luciferase reporter, cherry pick, set 2 (AID 743343); assay type: functional;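 further: transfected cells were stimulated with diluted bursicon conditioned medium after compound addition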
[21] = HEK293 cell cytotoxicity, dose response, cytotoxicity control, plate reader, cherry-picked samples (AID 743446); assay type: functional, cell-based
[22] = A549 cell cytotoxicity, dose response, cytotoxicity control, plate reader, cherry-pick, antagonist series (AID 743412); assay type: functional, cell-based
[23] = MC4R antagonists, dose response, counter-screen for LGR2 antagonist project, cell-based, plate reader, cherry pick (AID 743444); assay type: functional;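 further: transfected HEK 293 cells stimulated with alpha-MSH peptide; potency of inhibitors of the alpha-MSH evoked signal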

Phospholipase A2, sequence (P04054 whole entry): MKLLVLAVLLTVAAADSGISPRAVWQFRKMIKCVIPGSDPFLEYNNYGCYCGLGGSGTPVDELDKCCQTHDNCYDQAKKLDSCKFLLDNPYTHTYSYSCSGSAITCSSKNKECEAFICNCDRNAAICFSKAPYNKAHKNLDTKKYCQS
T2 sequence (P11940 whole entry, the tested form may be a part): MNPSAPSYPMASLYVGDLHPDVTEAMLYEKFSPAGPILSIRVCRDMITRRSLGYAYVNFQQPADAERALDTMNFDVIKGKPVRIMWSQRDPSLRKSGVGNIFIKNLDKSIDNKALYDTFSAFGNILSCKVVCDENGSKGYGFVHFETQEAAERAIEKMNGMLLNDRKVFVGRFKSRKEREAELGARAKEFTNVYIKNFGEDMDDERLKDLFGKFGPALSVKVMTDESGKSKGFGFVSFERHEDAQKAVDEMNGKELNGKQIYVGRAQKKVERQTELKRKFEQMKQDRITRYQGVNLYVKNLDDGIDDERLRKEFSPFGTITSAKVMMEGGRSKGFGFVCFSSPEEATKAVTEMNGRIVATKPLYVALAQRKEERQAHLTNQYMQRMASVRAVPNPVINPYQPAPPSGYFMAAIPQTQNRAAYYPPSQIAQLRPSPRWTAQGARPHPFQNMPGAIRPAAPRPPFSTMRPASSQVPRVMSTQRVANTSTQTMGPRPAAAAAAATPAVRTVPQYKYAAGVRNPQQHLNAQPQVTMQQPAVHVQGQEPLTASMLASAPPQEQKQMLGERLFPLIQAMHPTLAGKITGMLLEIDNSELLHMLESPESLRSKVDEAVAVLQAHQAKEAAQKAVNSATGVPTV

CCCNC(=O)c1cc2c(c(-c3cccc(-c4cc5ccccc5o4)c3)n1)[C@H](CCO)N(C(=O)NC(C)C)C2
AC50 [1]: 2.39 µM (active) | AC50 [2]: 2.97 µM (active) | AC50 [3]: 1.87 µM (active) | AC50 [4]: 1.75 µM (active)

Oc1ccc(C2=NN(c3ccccc3)C(c3ccc(F)cc3)C2)cc1 (centres undefined)
AC50 [5]: 2.97 µM (active) | EC50 [6]: > 195 µM (not active) | AC50 [7]: 4.34 µM (active)

C=CCN1C(=O)/C(=C2/Sc3ccccc3N2CCCS(=O)(=O)O)SC1=S.c1ccncc1
IC50 [8]: > 66 µM (inactive) | IC50 [9]: 5.11 µM (active) | IC50 [10]: > 66 µM (inactive)

COc1ccc(NC(=O)Nc2ccc3c(c2)C(=O)N([C@@H](C)CO)C[C@H](C)[C@H](CN(C)S(=O)(=O)c2ccc(Cl)cc2)O3)cc1
AC50 [11]: 5.71 µM (active) | AC50 [12]: 5.38 µM (active) | AC50 [13]: 4.73 µM (active)

COc1cc(OC)cc(-c2nc3ccccc3c(=O)n2OC(=O)c2ccc(C)c(C)c2)c1
IC50 (Cysteine protease ATG4B): 4.38 µM (active) | IC50 (Phospholipase A2): 5.9 µM (active)

CCOc1ccccc1NC(=O)Cn1cnc2c(nnn2-c2cccc(OC)c2)c1=O
IC50 [9]: 10.1 µM (active)

COc1ccc(N2C(=O)Cc3ccccc3C2=O)cc1
IC50 [14]: > 100 µM (inactive) | IC50 [15]: 5.08 µM (active)

CC(=O)OCC1OC(NC(=O)N(CCCl)N=O)C(OC(C)=O)C(OC(C)=O)C1OC(C)=O (centres undefined)
GI50 (SN12K1): > 100 µM (inactive) | GI50 (P388/ADR): 44.9 µM (inactive) | GI50 (P388): 26.7 µM (inactive)

Cc1ccccc1S(=O)(=O)N(C)C[C@@H]1OCc2ccccc2-c2c(n(C)c3ccccc23)C(=O)N([C@@H](C)CO)C[C@@H]1C
AC50 [1]: 0.812 µM (active) | AC50 [2]: 1.02 µM (active) | AC50 [3]: 1.63 µM (active) | AC50 [4]: 0.659 µM (active)

CC(C)(C)OC(=O)N1Cc2ccccc2C[C@H]1C(=O)O
IC50 [14]: > 100 µM (inactive) | IC50 [15]: 12.8 µM (active)

COc1ccc(/C=C2\SC(=S)N(CCC(=O)Nc3cccc(C(=O)O)c3)C2=O)cc1
IC50 [9]: 6.38 µM (active)

C=C1C(=O)O[C@@H]2OC3(C)CCC4C(C)CCC1C42OO3 (some centres undefined)
GI50 (SN12K1): 3.66 µM (inactive) | GI50 (P388/ADR): 0.294 µM (active)

Cc1cccc(-n2c(-c3cccs3)nc3ccccc3c2=O)c1
IC50 (Cysteine protease ATG4B): 10 µM (active) | IC50 (Phospholipase A2): 7.49 µM (active)

O=c1c2ccccc2nc(-c2ccc(-c3ccccc3)cc2)n1-c1ccncc1
EC50 [16]: > 60 µM (not active) | EC50 [17]: 0.398 µM (active) | AC50 [7]: 2.73 µM (active)

CC(=O)OC(C)(C)/C=C/C(=O)[C@](C)(O)[C@H]1[C@H](O)C[C@@]2(C)[C@@H]3CC=C4[C@@H](C=C(O)C(=O)C4(C)C)[C@]3(C)C(=O)C[C@]12C [CUCURBITACIN E]
GI50 (SN12K1): 0.0336 µM (active) | GI50 (P388/ADR): 0.0375 µM (active) | GI50 (P388): 0.0379 µM (active)

CCn1c(=O)c(C(=O)Nc2ncccc2C)c(O)c2ccccc21
IC50 (cells): 45.2 µM (active) | EC50 [18]: 0.119 µM (active) | EC50 [19]: > 150 µM (inconclusive)

COc1ccc(C2COc3c(ccc(O)c3C)C2)cc1OC (centres undefined)
GI50 (SN12K1): 45.8 µM (inactive) | GI50 (P388/ADR): 35.9 µM (inactive) | GI50 (P388): 40.9 µM (inactive)

CC(C)(C)C(O)C(Cc1ccccc1Cl)n1cncn1 (centres undefined)
AC50 [7]: < 0.195 µM (active)

CN1C(=O)C(N=Nc2ccccc2C(=O)O)N(C)C1=S (centres undefined)
IC50 (Cysteine protease ATG4B): 16.1 µM (active) | IC50 (Phospholipase A2): 10.3 µM (active)

O=C1C=CN(C2OC(CO)C(O)C2O)C(=O)C1 (centres undefined)
GI50 (P388/ADR): 0.843 µM (active) | GI50 (P388): 0.718 µM (active)

COC/C=C/C1=CC2=CC(=O)C(C)(OC(=O)c3cnc4ccccc4n3)C(=O)C2=CN1CCOC (centres undefined)
IC50 [14]: 13.1 µM (active) | IC50 [15]: 11.5 µM (active)

COc1cc(=O)n(C)c2c(O)cccc12
IC50 [14]: > 100 µM (inactive) | IC50 [15]: 11.5 µM (active)

COc1ccc(NC(=O)NNc2cc(N3CCOCC3)nc(N3CCOCC3)n2)cc1
IC50 [14]: 7.36 µM (active) | IC50 [15]: 9.34 µM (active)

COc1ccc(C(C)=O)cc1COC(=O)c1ccc2ccccc2n1
IC50 (cells): 10.4 µM (active)

Cc1ccc(NCCC(=O)c2cccs2)cc1Cl
IC50 (cells): 28.8 µM (active)

Cc1ccc2[nH]c(CCc3nc4cc(C)ccc4[nH]3)nc2c1
IC50 (cells): 35.3 µM (active)

CN(C)CCNC(=O)c1cccc2ccc(-c3ccc(Br)cc3)nc12
GI50 (SN12K1): 0.895 µM (active) | GI50 (P388/ADR): 0.512 µM (active) | GI50 (P388): 0.374 µM (active)

Cc1ccc(Nc2nc3ccccc3s2)c(C)c1
AC50 [20]: 16.1 µM (active) | AC50 [21]: > 52 µM (inactive) | AC50 [22]: 37.8 µM (active) | AC50 [23]: 14.3 µM (active)

C[C@H]1CN([C@@H](C)CO)C(=O)Cc2cc(NC(=O)C3CCCCC3)ccc2O[C@H]1CN(C)S(=O)(=O)c1ccc(Cl)cc1
AC50 [11]: 8.97 µM (active) | AC50 [12]: 22.6 µM (active) | AC50 [13]: 6.75 µM (active)

O=C(COc1ccccc1[N+](=O)[O-])Nc1cccc(S(=O)(=O)NC2=NCCCCC2)c1
IC50 [9]: 9 µM (active)
